Test results taken from PubChem BioAssay (NCI).
“And” between values parts separate entries of the source, which are not always exact repeats. Equal values may be shown once.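 In this assay, cells in 96-well plates receive the compound at five concentrations for 48 hours. Endpoints are linearly interpolated between the surrounding concentrations. GI50 marks 50% less growth. TGI is the concentration that stops growth completely.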

What follows are compounds tested on SK-MEL-5 melanoma (assay: NCI-60 cell line screen, 48 h).

Row | SMILES | TGI | GI50
1 | CC(=O)NC1C(OCc2ccccc2)OC(CO)C(O)C1OCC(=O)N[C@@H](C)C(=O)N[C@H](CCC(=O)NCCCNc1c2ccccc2nc2cccc([N+](=O)[O-])c12)C(N)=O (stereo partly drawn) | 0.0383 µM | 
2 | COc1ccc(-c2nc(SCC(=O)NNC(=S)Nc3ccccc3)[nH]c2-c2ccc(OC)cc2)cc1 | 28.4 µM | 
3 | O=C(O)c1ccccc1CC(Cc1ccc2c(c1)CCC2)C(=O)O (stereo not drawn) | > 100 µM | 
4 | Cn1c(SCc2ccc(F)cc2)nnc1C12CC3CC(CC(C3)C1)C2 | 26.6 µM | 
5 | COC(=O)/C=C\C(C#N)(C#N)N=Cc1ccc(C)cc1 | 26.9 µM | 
6 | CC(c1ccccc1)N1CCN(C(C)c2ccccc2)CC1 (stereo not drawn) | 35.7 µM | 
7 | CCCCCC#CCOC(=O)C(=[N+]=[N-])P(=O)(c1ccccc1)c1ccccc1 | > 10 µM | 
8 | COc1ccc(C(=O)/C=C/c2ccc(OCCCOc3ccc(/C=C/C(=O)c4ccc(OC)cc4)cc3)cc2)cc1 | > 100 µM | 
9 | CCOc1cc(/C=C2/C(C)=NN(c3cccc(Cl)c3)/C2=N/c2nc3ccccc3s2)ccc1O | 40.2 µM | 
10 | COc1ccc(N2C(=O)CC(=O)N(NC(=O)C(C)Oc3ccccc3C)C2=S)cc1 (stereo not drawn) | > 100 µM | 
11 | COc1cc(OC)cc(C(=O)CC(=O)c2cc(OC)cc(OC)c2)c1 | > 100 µM | 
12 | COc1ccc(C2c3cn[nH]c3CC3CCCCC32)cc1 (stereo not drawn) | 29.1 µM | 
13 | O=C1OC(C2Cc3ccc4ccccc4c3C2=O)c2ccccc21 (stereo not drawn) | 98.2 µM | 
14 | C/C(=N\N=C1/C(=O)OC(c2ccccc2)=C1C(=O)c1ccccc1)c1ccc([N+](=O)[O-])cc1 | > 100 µM | 
15 | O=C(O)[C@H]1CCCN1CP(=O)(O)CN1CCC[C@@H]1C(=O)O | > 100 µM | 
16 | O=S(=O)(O)C(CO)c1ccccc1 (stereo not drawn) (tested in a mixture with another compound) | > 100 µM | 
17 | O=C1c2ccccc2C(=O)N1n1c(Cc2ccc([N+](=O)[O-])cc2)n[nH]c1=O | > 100 µM | 
18 | O=C1CC2(CCC(O)(c3ccc4ccccc4c3)C(C(=O)c3ccc4ccccc4c3)C2)C(=O)c2ccccc2N1 (stereo not drawn) | > 100 µM | 
19 | Cc1nc(C)c(N2CCN([N+](=O)[O-])CC2)c(=O)[nH]1 | > 100 µM | 
20 | Cc1nn(-c2ccccc2)c2c1C(c1cc3ccccc3nc1Cl)NC(=O)N2 (stereo not drawn) | 31.3 µM | 
21 | COc1ccc(C2OC(c3ccncc3)=NN2C)cc1F (stereo not drawn) | > 100 µM | 
22 | Cc1cc(/N=C/c2ccc(N(C)C)cc2)n(-c2ccccc2)n1 | > 100 µM | 

Row | SMILES | TGI | GI50
23 | COC(=O)C(Cc1ccc2c(c1)CCC2)Cc1ccc2c(c1)CCC2 | > 100 µM | 
24 | CNc1cc2c(c3ccccc13)C(CCl)CN2C(=O)c1cc2cc(OC)c(OC)c(OC)c2[nH]1 (stereo not drawn) | 0.00435 µM | 
25 | O=C(O)CN1CCN2CCCCCN(CC1)CCN(CC(=O)O)CC2 | > 100 µM | 
26 | Cc1cccc(C)c1NC(=O)C(Cc1c[nH]c2ccccc12)NC(=O)OCc1ccccc1 (stereo not drawn) | 28.9 µM | 
27 | S=C1NC2=C(CSC/C2=C\c2cccc(Br)c2)C(c2cccc(Br)c2)N1 (stereo not drawn) | > 100 µM | 
28 | CSC1=N/C(=C\c2ccc(C)cc2)C(=O)N1CN1CCCCC1 | > 100 µM | 
29 | Cc1ccc(C2=CC(=O)OC(C[P+](c3ccccc3)(c3ccccc3)c3ccccc3)(c3ccccc3)O2)cc1 (stereo not drawn) | 29.8 µM | 
30 | O=c1oc2cc(O)ccc2c(O)c1C(c1ccccc1)c1c(O)c2ccc(O)cc2oc1=O | > 100 µM | 
31 | C[n+]1c(/C=C/c2c(O)ccc3ccccc23)ccc2ccccc21 | 10.7 µM | 4.82 µM
32 | O=C(NCP(=O)(Oc1ccccc1)Oc1ccccc1)OCc1ccccc1 | > 100 µM | 
33 | Cc1c(/C=N\NC(=S)NCCNC(=S)N/N=C\c2c(C)n(C)n(-c3ccccc3)c2=O)c(=O)n(-c2ccccc2)n1C | > 100 µM | 
34 | CC(C)c1cc2c(c(O)c1O)[C@@]1(C(=O)O)CCCC(C)(C)[C@@H]1CC2 | 47.2 µM | 
35 | Cc1c(O)nc(-n2[nH]c3c(c2=O)CCCC3)[nH]c1=O | > 100 µM | 
36 | C=CCn1c(=O)c(C(=O)Nc2nc(C34CC5CC(CC(C5)C3)C4)cs2)c(O)c2ccccc21 | > 100 µM | 
37 | CCCNc1ncnc2c1ncn2C | > 100 µM | 
38 | C=CCc1cc(-c2nc(=S)[nH][nH]2)ccc1N=NNc1ccc(C(=O)O)cc1 | 60.1 µM | 
39 | O=C(O)CN1CCNCCN(CC(=O)O)CCN(CC(=O)O)CCNCC1 | > 100 µM | 
40 | CC(NC(=O)Cc1ccccc1)NC(=O)C(C)C(=O)Nc1ccccc1 (stereo not drawn) | > 100 µM | 
41 | CCOC(=O)c1c(-c2ccc(O)c(OC)c2)c(C#N)c(=S)n(C2OC(CO)C(O)C(O)C2O)c1-c1ccccc1 (stereo not drawn) | > 100 µM | 
42 | C=C1CC(C#N)(C#N)[C@H]2C3CCCC3C[C@@H]12 (stereo partly drawn) (tested in a mixture with another compound) | > 100 µM | 
43 | COC(C)(C)C1(O)CC[C@@H](C)CC1=O (stereo partly drawn) | > 100 µM | 
44 | Nc1ccc(N=Nc2c(S(=O)(=O)O)cc3ccccc3c2S(=O)(=O)O)cc1 | > 100 µM | 

These compounds were tested on SK-OV-3 ovarian (assay: NCI-60 cell line screen, 48 h).

Row | SMILES | TGI
45 | CC1=CCC([C@@](C)(O)CCCC(C)(C)N=C=S)CC1 (stereo partly drawn) | 32.9 µM
46 | CCN1CN(c2ccccc2)C2(CCN(CC3COc4ccccc4O3)CC2)C1=O (stereo not drawn) | > 100 µM
47 | C=C1C(=O)CC2C1CC(=O)/C(C)=C/CCC(C)(O)C2O (stereo not drawn) | 49.8 µM
48 | O=C1C=C/C(=N\N=C(c2ccccc2)c2ccccc2)O1 | > 10 µM
49 | N[C@@H](Cc1ccccc1)C(=O)N1CCC[C@@H]1P(=O)(Oc1ccccc1)Oc1ccccc1 | > 100 µM
50 | O=c1[nH][nH]c(=O)n1CCCCCCn1c(=O)[nH][nH]c1=O | > 100 µM
51 | CC(=O)NC1C(OCc2ccccc2)OC(CO)C(O)C1OCC(=O)N[C@@H](C)C(=O)N[C@H](CCC(=O)NCCCNc1c2ccccc2nc2cccc([N+](=O)[O-])c12)C(N)=O (stereo partly drawn) | 0.99 µM
52 | COc1ccc(-c2nc(SCC(=O)NNC(=S)Nc3ccccc3)[nH]c2-c2ccc(OC)cc2)cc1 | > 100 µM
53 | O=C(O)c1ccccc1CC(Cc1ccc2c(c1)CCC2)C(=O)O (stereo not drawn) | > 100 µM
54 | Cn1c(SCc2ccc(F)cc2)nnc1C12CC3CC(CC(C3)C1)C2 | > 100 µM
55 | COC(=O)/C=C\C(C#N)(C#N)N=Cc1ccc(C)cc1 | 31.6 µM
56 | CCCCCC#CCOC(=O)C(=[N+]=[N-])P(=O)(c1ccccc1)c1ccccc1 | > 10 µM
57 | COc1ccc(C(=O)/C=C/c2ccc(OCCCOc3ccc(/C=C/C(=O)c4ccc(OC)cc4)cc3)cc2)cc1 | > 100 µM
58 | CCOc1cc(/C=C2/C(C)=NN(c3cccc(Cl)c3)/C2=N/c2nc3ccccc3s2)ccc1O | 70.5 µM
59 | COc1ccc(N2C(=O)CC(=O)N(NC(=O)C(C)Oc3ccccc3C)C2=S)cc1 (stereo not drawn) | > 100 µM
60 | COc1cc(OC)cc(C(=O)CC(=O)c2cc(OC)cc(OC)c2)c1 | > 100 µM
61 | C/C(=N\N=C1/C(=O)OC(c2ccccc2)=C1C(=O)c1ccccc1)c1ccc([N+](=O)[O-])cc1 | > 100 µM
62 | O=C(O)[C@H]1CCCN1CP(=O)(O)CN1CCC[C@@H]1C(=O)O | > 100 µM
63 | O=S(=O)(O)C(CO)c1ccccc1 (stereo not drawn) (tested in a mixture with another compound) | > 100 µM
64 | O=C1CC2(CCC(O)(c3ccc4ccccc4c3)C(C(=O)c3ccc4ccccc4c3)C2)C(=O)c2ccccc2N1 (stereo not drawn) | > 100 µM
65 | Cc1nc(C)c(N2CCN([N+](=O)[O-])CC2)c(=O)[nH]1 | > 100 µM
66 | Cc1nn(-c2ccccc2)c2c1C(c1cc3ccccc3nc1Cl)NC(=O)N2 (stereo not drawn) | 49.1 µM

Row | SMILES | TGI
67 | COc1ccc(C2OC(c3ccncc3)=NN2C)cc1F (stereo not drawn) | > 100 µM
68 | Cc1cc(/N=C/c2ccc(N(C)C)cc2)n(-c2ccccc2)n1 | > 100 µM
69 | COC(=O)C(Cc1ccc2c(c1)CCC2)Cc1ccc2c(c1)CCC2 | > 100 µM
70 | O=C1NC2c3c(I)sc(I)c3C(O)C2O1 (stereo not drawn) | > 100 µM
71 | CNc1cc2c(c3ccccc13)C(CCl)CN2C(=O)c1cc2cc(OC)c(OC)c(OC)c2[nH]1 (stereo not drawn) | 0.894 µM and 0.982 µM
72 | O=C(O)CN1CCN2CCCCCN(CC1)CCN(CC(=O)O)CC2 | > 100 µM
73 | Cc1cccc(C)c1NC(=O)C(Cc1c[nH]c2ccccc12)NC(=O)OCc1ccccc1 (stereo not drawn) | 65.1 µM
74 | S=C1NC2=C(CSC/C2=C\c2cccc(Br)c2)C(c2cccc(Br)c2)N1 (stereo not drawn) | > 100 µM
75 | CSC1=N/C(=C\c2ccc(C)cc2)C(=O)N1CN1CCCCC1 | > 100 µM
76 | Cc1ccc(C2=CC(=O)OC(C[P+](c3ccccc3)(c3ccccc3)c3ccccc3)(c3ccccc3)O2)cc1 (stereo not drawn) | 32.4 µM
77 | O=c1oc2cc(O)ccc2c(O)c1C(c1ccccc1)c1c(O)c2ccc(O)cc2oc1=O | > 100 µM
78 | O=C(NCP(=O)(Oc1ccccc1)Oc1ccccc1)OCc1ccccc1 | > 100 µM
79 | Cc1c(/C=N\NC(=S)NCCNC(=S)N/N=C\c2c(C)n(C)n(-c3ccccc3)c2=O)c(=O)n(-c2ccccc2)n1C | > 100 µM
80 | CC(C)c1cc2c(c(O)c1O)[C@@]1(C(=O)O)CCCC(C)(C)[C@@H]1CC2 | > 100 µM
81 | Cc1c(O)nc(-n2[nH]c3c(c2=O)CCCC3)[nH]c1=O | > 100 µM
82 | CCCNc1ncnc2c1ncn2C | > 100 µM
83 | C=CCc1cc(-c2nc(=S)[nH][nH]2)ccc1N=NNc1ccc(C(=O)O)cc1 | > 100 µM
84 | O=C(O)CN1CCNCCN(CC(=O)O)CCN(CC(=O)O)CCNCC1 | > 100 µM
85 | CC(NC(=O)Cc1ccccc1)NC(=O)C(C)C(=O)Nc1ccccc1 (stereo not drawn) | > 100 µM
86 | C=C1CC(C#N)(C#N)[C@H]2C3CCCC3C[C@@H]12 (stereo partly drawn) (tested in a mixture with another compound) | > 100 µM
87 | COC(C)(C)C1(O)CC[C@@H](C)CC1=O (stereo partly drawn) | > 100 µM

What follows are compounds tested on SNB-19 CNS (assay: NCI-60 cell line screen, 48 h).

Row | SMILES | TGI
88 | CC1=CCC([C@@](C)(O)CCCC(C)(C)N=C=S)CC1 (stereo partly drawn) | 31.1 µM
89 | CCN1CN(c2ccccc2)C2(CCN(CC3COc4ccccc4O3)CC2)C1=O (stereo not drawn) | > 100 µM
90 | C=C1C(=O)CC2C1CC(=O)/C(C)=C/CCC(C)(O)C2O (stereo not drawn) | > 67.1 µM
91 | N[C@@H](Cc1ccccc1)C(=O)N1CCC[C@@H]1P(=O)(Oc1ccccc1)Oc1ccccc1 | > 100 µM
92 | O=c1[nH][nH]c(=O)n1CCCCCCn1c(=O)[nH][nH]c1=O | > 100 µM
